Here are results for 21 molecules from US20190330226A1, “POSITIVE ALLOSTERIC MODULATORS OF THE MUSCARINIC ACETYLCHOLINE RECEPTOR M1” (Vanderbilt University, priority 2018, published 2019).

This assay deals with T1, human mAChR M1 (Homo sapiens, UniProt P11229).
T1 construct: host or cells: CHO-K1 (ATCC), stably transfected using Lipofectamine 2000
T1 sequence (P11229 1-460): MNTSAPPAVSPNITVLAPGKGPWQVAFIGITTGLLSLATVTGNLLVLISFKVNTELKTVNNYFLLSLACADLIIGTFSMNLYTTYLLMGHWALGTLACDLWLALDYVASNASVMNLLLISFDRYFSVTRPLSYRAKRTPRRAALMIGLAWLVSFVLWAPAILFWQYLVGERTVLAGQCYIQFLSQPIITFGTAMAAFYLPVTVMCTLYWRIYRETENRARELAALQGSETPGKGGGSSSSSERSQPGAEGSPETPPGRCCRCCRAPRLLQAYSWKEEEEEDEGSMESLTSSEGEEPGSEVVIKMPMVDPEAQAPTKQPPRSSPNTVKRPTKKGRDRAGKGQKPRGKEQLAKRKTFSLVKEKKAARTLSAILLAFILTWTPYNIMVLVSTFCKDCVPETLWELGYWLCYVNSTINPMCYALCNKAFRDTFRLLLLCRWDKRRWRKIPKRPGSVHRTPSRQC
In words: mAChR M1 cell-based functional assay (calcium mobilization, Fluo-4, FDSS). The settings on record: CHO-K1 cells stably expressing hM1, calcium flux; for Emax: PAM mode with EC20 acetylcholine; for EC50: concentration-dependent increase in the EC20 acetylcholine response. From the text:
Chinese hamster ovary (CHO-K1) cells stably expressing rat (r)M1 were purchased from the American Type Culture Collection and cultured according to their indicated protocol. CHO cells stably expressing human (h)M2, hM3, and hM5 were described previously (Levey, et al., 1991); hM1 and hM4 cDNAs were purchased from Missouri S&T cDNA Resource; rM4 cDNA was provided by T. I. Bonner (National Institutes of Health, Bethesda, Md.). rM2 and rM3 were cloned from a rat brain cDNA library and sequence verified. hM1, rM2, rM3, hM4, and rM4 cDNAs were used to stably transfect CHO-K1 cells purchased from the American Type Culture Collection using Lipofectamine 2000. To make stable rM2, hM2, rM3, hM4, and rM4 cell lines for use in calcium mobilization assays, these cells also were stably transfected with a chimeric G-protein (Gqi5) (provided by B. R. Conklin, University of California, San Francisco) using Lipofectamine 2000. rM1, hM1, rM3, hM3, rM5, and hM5 cells were grown in Ham's F-12 medium containing 10% heat-inactivated fetal bovine serum (FBS), 20 mM HEPES, and 50 µg/mL G418 sulfate. rM2-Gqi5, hM2-Gqi5, and hM4-Gqi5 cells were grown in the same medium also containing 500 μg/mL Hygromycin B. Stable rM4-Gqi5 cells were grown in DMEM containing 10% heat-inactivated FBS, 20 mM HEPES, 400 μg/mL G418 sulfate, and 500 μg/mL Hygromycin B.
For high throughput measurement of agonist-evoked increases in intracellular calcium, CHO-K1 cells stably expressing muscarinic receptors were plated in growth medium lacking G418 and hygromycin at 15,000 cells/20 μL/well in Greiner 384-well black-walled, tissue culture (TC)-treated, clear-bottom plates (VWR). Cells were incubated overnight at 37° C. and 5% CO2. The next day, cells were washed using an ELX 405 (BioTek) with four washes ([…]) of assay buffer then aspirated to 20 μL. Next, 20 μL of 16 μM Fluo-4/acetoxymethyl ester (Invitrogen, Carlsbad, Calif.) prepared as a 2.3 mM stock in DMSO and mixed in a 1:1 ratio with 10% (w/v) Pluronic F-127 and diluted in assay buffer was added to the wells and the cell plates were incubated for 50 min at 37° C. and 5% CO2. Dye was removed by washing with the ELX 405 (four 80 μL washes of assay buffer) then aspirated to 20 μL. Compound master plates were formatted in an 11 point CRC format (1:3 dilutions) in 100% DMSO with a starting concentration of 10 mM using the BRAVO liquid handler (Agilent). Test compound CRCs were then transferred to daughter plates (240 nL) using the Echo acoustic plate reformatter (Labcyte, Sunnyvale, Calif.) and then diluted into assay buffer (40 μL) to a 2× stock using a Thermo Fisher Combi (Thermo Fisher Scientific, Waltham, Mass.).
Calcium flux was measured using the Functional Drug Screening System (FDSS) 6000 (Hamamatsu Corporation, Tokyo, Japan) as an increase in the fluorescent static ratio. Compounds were applied to cells (20 μL, 2×) using the automated system of the FDSS 6000 at 4 s into the 300 s protocol and the data were collected at 1 Hz. At 144 s into the 300s protocol, 10 μL of an EC20 concentration of the muscarinic receptor agonist acetylcholine was added (5×), followed by the addition of 12 μL an EC80 concentration of acetylcholine at the 230 s time point (5×). Agonist activity was analyzed as a concentration-dependent increase in calcium mobilization upon compound addition. Positive allosteric modulator activity was analyzed as a concentration-dependent increase in the EC20 acetylcholine response. Antagonist activity was analyzed as a concentration-dependent decrease in the EC80 acetylcholine response. Concentration-response curves were generated using a four-parameter logistical equation in XLfit curve fitting software (IDBS, Bridgewater, N.J.) for Excel (Microsoft, Redmond, Wash.) or Prism (GraphPad Software, Inc., San Diego, Calif.).
Activity (EC50 and Emax) was determined in the mAChR M1 cell-based functional assay as described above and the data are shown in Table 2. […]

Consider `Cc1[nH]cc2c1C(=O)N(Cc1c(F)cc(-c3cccc4nn(C)cc34)cc1F)C2` [Compound 61, 2-(2,6-difluoro-4-(2-methyl-2H-indazol-4-yl)benzyl)-6-methyl-3,5-dihydropyrrolo[3,4-c]pyrrol-1(2H)-one], for which the Emax (usually the greatest response seen or fitted, relative to the assay's reference) was 51%.

Turning to `Cn1cc2cc(-c3ccc(CN4Cc5sccc5C4=O)c(F)c3)ccc2n1` [Compound 44, 5-(2-fluoro-4-(2-methyl-2H-indazol-5-yl)benzyl)-5,6-dihydro-4H-thieno[2,3-c]pyrrol-4-one], the Emax is 51% and the EC50 (in general, the concentration at which the effect is half-maximal) worked out at 2.78 µM.

For the molecule `Cn1cc(-c2ccc(CN3Cc4ccsc4C3=O)c(F)c2)cn1` [Compound 32, 5-(2-fluoro-4-(1-methyl-1H-pyrazol-4-yl)benzyl)-4,5-dihydro-6H-thieno[2,3-c]pyrrol-6-one], the Emax came to 67% and the half-maximal effective concentration (EC50) is 4.9 µM.

Take `Cc1cc(-c2cc(F)c(CN3Cc4sccc4C3=O)c(F)c2)cc2cn[nH]c12` [Compound 29, 5-(2,6-difluoro-4-(7-methyl-1H-indazol-5-yl)benzyl)-5,6-dihydro-4H-thieno[2,3-c]pyrrol-4-one]: the Emax worked out at 45%.

On to `Cn1cc(-c2ccc(CN3Cc4sccc4C3=O)c(F)c2)cn1` [Compound 41, 5-(2-fluoro-4-(1-methyl-1H-pyrazol-4-yl)benzyl)-5,6-dihydro-4H-thieno[2,3-c]pyrrol-4-one], for which the Emax was 69%.

In the case of `Cc1cc(-c2cc(F)c(CN3Cc4cnn(CC5CCCO5)c4C3=O)c(F)c2)ccn1` (centres unmarked) [Compound 39, 5-(2,6-difluoro-4-(2-methylpyridin-4-yl)benzyl)-1-((tetrahydrofuran-2-yl)methyl)-4,5-dihydropyrrolo[3,4-c]pyrazol-6(1H)-one], the Emax is 65% and the EC50 amounted to 3.58 µM.

As for `Cn1cc2c(-c3cc(F)c(CN4Cc5ccn(CCN6CCCC6)c5C4=O)c(F)c3)cccc2n1` [Compound 11, 5-(2,6-difluoro-4-(2-methyl-2H-indazol-4-yl)benzyl)-1-(2-(pyrrolidin-1-yl)ethyl)-4,5-dihydropyrrolo[3,4-b]pyrrol-6(1H)-one], the maximum response (Emax) is 57% and the half-maximal effective concentration (EC50) turned out to be 2.92 µM.

`O=C1c2ccsc2CN1Cc1ccc(-c2ccc3nccn3c2)cc1F` [Compound 45, 5-(2-fluoro-4-(imidazo[1,2-a]pyridin-6-yl)benzyl)-5,6-dihydro-4H-thieno[2,3-c]pyrrol-4-one]: the Emax came out at 50% and the EC50 was determined as 4.46 µM.

As for `COc1ccc(Cn2ncc3c2C(=O)N(Cc2c(F)cc(-c4cccc5nn(C)cc45)cc2F)C3)cc1` [Compound 6.1, 5-(2,6-difluoro-4-(2-methyl-2H-indazol-4-yl)benzyl)-1-(4-methoxybenzyl)-4,5-dihydropyrrolo[3,4-c]pyrazol-6(1H)-one], the maximal response (Emax) turned out to be 45% and the EC50 was determined as 4.37 µM.

Turning to `Cn1cc(-c2ccc(CN3Cc4sccc4C3=O)cc2)cn1` [Compound 46, 5-(4-(1-methyl-1H-pyrazol-4-yl)benzyl)-5,6-dihydro-4H-thieno[2,3-c]pyrrol-4-one], the Emax was 50%.

Take `Cc1n[nH]c2ccc(-c3cc(F)c(CN4Cc5sccc5C4=O)c(F)c3)cc12` [Compound 28, 5-(2,6-difluoro-4-(3-methyl-1H-indazol-5-yl)benzyl)-5,6-dihydro-4H-thieno[2,3-c]pyrrol-4-one]: the Emax stood at 57%.

Turning to `Cn1cc(-c2ccc(CN3Cc4sccc4C3=O)cc2)nn1` [Compound 48, 5-(4-(1-methyl-1H-1,2,3-triazol-4-yl)benzyl)-5,6-dihydro-4H-thieno[2,3-c]pyrrol-4-one], the Emax came out at 33%.

Regarding `Cn1cc2c(-c3ccc(CN4Cc5sccc5C4=O)c(F)c3)cccc2n1` [Compound 40, 5-(2-fluoro-4-(2-methyl-2H-indazol-4-yl)benzyl)-5,6-dihydro-4H-thieno[2,3-c]pyrrol-4-one], the Emax was found to be 67% and the EC50 is 3.97 µM.

Regarding `Cn1cc2c(-c3cc(F)c(CN4Cc5cnn(Cc6ccccn6)c5C4=O)c(F)c3)cccc2n1` [Compound 6, 5-(2,6-Difluoro-4-(2-methyl-2H-indazol-4-yl)benzyl)-1-(pyridin-2-ylmethyl)-4,5-dihydropyrrolo[3,4-c]pyrazol-6(1H)-one], the Emax amounted to 63%.

For `Cn1cc(-c2cc(F)c(CN3Cc4cnn(CC5CCCO5)c4C3=O)c(F)c2)cn1` (centres unmarked) [Compound 35, 5-(2,6-difluoro-4-(1-methyl-1H-pyrazol-4-yl)benzyl)-1-((tetrahydrofuran-2-yl)methyl)-4,5-dihydropyrrolo[3,4-c]pyrazol-6(1H)-one], the Emax came to 73%.

On to `Cn1cc2c(-c3cc(F)c(CN4Cc5cc[nH]c5C4=O)c(F)c3)cccc2n1` [Compound 9, 5-(2,6-difluoro-4-(2-methyl-2H-indazol-4-yl)benzyl)-4,5-dihydropyrrolo[3,4-b]pyrrol-6(1H)-one], for which the Emax stood at 36% and the EC50 came out at 1.88 µM.

`Cn1cc2c(-c3cc(F)c(CN4Cc5cnn(CCN6CCCC6)c5C4=O)c(F)c3)cccc2n1` [Compound 20, 5-(2,6-difluoro-4-(2-methyl-2H-indazol-4-yl)benzyl)-1-(2-(pyrrolidin-1-yl)ethyl)-4,5-dihydropyrrolo[3,4-c]pyrazol-6(1H)-one]: the Emax amounted to 91% and the EC50 came to 0.73 µM.

With `Cc1nn(C)cc1-c1cc(F)c(CN2Cc3ccn(CC4CCCO4)c3C2=O)c(F)c1` (centres unmarked) [Compound 51, 5-(4-(1,3-dimethyl-1H-pyrazol-4-yl)-2,6-difluorobenzyl)-1-((tetrahydrofuran-2-yl)methyl)-4,5-dihydropyrrolo[3,4-b]pyrrol-6(1H)-one], the Emax is 51% and the EC50 came out at 3.45 µM.

As for `Cn1ccc(-c2ccc(CN3Cc4sccc4C3=O)c(F)c2)n1` [Compound 42, 5-(2-fluoro-4-(1-methyl-1H-pyrazol-3-yl)benzyl)-5,6-dihydro-4H-thieno[2,3-c]pyrrol-4-one], the maximum response (Emax) stood at 46%.

Turning to `Cn1cc2cc(-c3cc(F)c(CN4Cc5ccn(CC6CCCO6)c5C4=O)c(F)c3)ccc2n1` (centres unmarked) [Compound 8, 5-(2,6-difluoro-4-(2-methyl-2H-indazol-5-yl)benzyl)-1-((tetrahydrofuran-2-yl)methyl)-4,5-dihydropyrrolo[3,4-b]pyrrol-6(1H)-one], the Emax amounted to 33% and the concentration for a half-maximal effect (EC50) was 3.85 µM.

On to `Cn1cc(-c2ccc(CN3Cc4ncsc4C3=O)c(F)c2)cn1` [Compound 12, 5-(2-fluoro-4-(1-methyl-1H-pyrazol-4-yl)benzyl)-4,5-dihydro-6H-pyrrolo[3,4-d]thiazol-6-one], for which the Emax was 47%.
